Columns and labels:
[1] = molecular target: T1, AKR1C3 (Homo sapiens, UniProt P42330); experiment: Inhibition of NADP+ dependent oxidation of S-tetralol catalyzed by AKR1C3; assay type: biochemical
T1 sequence (P42330 1-323): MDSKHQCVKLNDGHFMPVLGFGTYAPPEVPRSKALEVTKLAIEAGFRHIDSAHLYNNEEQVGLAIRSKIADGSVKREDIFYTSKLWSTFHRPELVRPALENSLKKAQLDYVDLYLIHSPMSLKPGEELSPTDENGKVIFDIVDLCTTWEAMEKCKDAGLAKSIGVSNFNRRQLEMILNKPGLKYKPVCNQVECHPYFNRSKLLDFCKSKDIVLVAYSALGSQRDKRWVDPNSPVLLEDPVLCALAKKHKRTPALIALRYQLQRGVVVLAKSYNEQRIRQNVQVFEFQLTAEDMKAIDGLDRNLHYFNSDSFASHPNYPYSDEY

[2] = tested on: AKR1C3 mediated production of testosterone in LNCaP-AKR1C3 cells; experiment: LNCaP-AKR1C3 mediated formation of testosterone from [14C]-Δ4-AD; assay type: cell-based, human; details: 10 μM inhibitor, 0.1 μM [14C]-Δ4-AD, 48 h, relative to control
[3] = molecular target: T2, AKR1C2 (Homo sapiens, UniProt P52895); experiment: Inhibition of NADP+ dependent oxidation of S-tetralol catalyzed by AKR1C2; assay type: biochemical; details: selectivity for AKR1C3; high value = high selectivity
T2 sequence (P52895 1-323): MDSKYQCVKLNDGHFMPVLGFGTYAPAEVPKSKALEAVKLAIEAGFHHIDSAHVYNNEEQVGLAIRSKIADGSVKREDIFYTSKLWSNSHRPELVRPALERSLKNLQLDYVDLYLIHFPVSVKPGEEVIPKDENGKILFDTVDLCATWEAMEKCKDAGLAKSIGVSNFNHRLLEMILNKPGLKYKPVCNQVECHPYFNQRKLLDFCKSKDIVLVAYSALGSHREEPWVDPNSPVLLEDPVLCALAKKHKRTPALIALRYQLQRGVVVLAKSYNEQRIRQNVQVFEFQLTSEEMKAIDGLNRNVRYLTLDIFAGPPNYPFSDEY

Row | IC50 [1] | Ratio IC50 1C2:1C3 [3] | SMILES | also measured
1 | – | >24 | O=C(O)c1ccc(Nc2cccc([N+](=O)[O-])c2)cc1 [Compound 5d, 4-((3-nitrophenyl)amino)benzoic acid] | –
2 | – | >25 | O=C(O)c1ccc(Nc2ccc(Br)cc2)cc1 [Compound 5l] | –

Further lines, the compound ahead of its results:

Row | SMILES | IC50 [1] | Ratio IC50 1C2:1C3 [3] | also measured
3 | CC(C)(C)c1ccc(Nc2ccccc2C(=O)O)cc1 [Compound 1o] | 0.038 µM | – | –
4 | CC(=O)c1ccc(Nc2cccc(C(=O)O)c2)c(C(=O)O)c1 [Compound 4w] | – | – | inhibition of testosterone production in LNCaP-AKR1C3 cells [2]: Almost identical results
5 | O=C(O)c1cccc(Nc2ccc([N+](=O)[O-])cc2)c1 [Compound 4m] | 0.033 µM | – | –
6 | O=C(O)c1cccc(Nc2cccc(C(=O)O)c2)c1 [Compound 4l] | – | >28.0 | –

Source: PMC3298089 (Journal of Medicinal Chemistry, 2012)
